Structures can show the parent of a compound that is named as a salt.
Columns and labels:
human LSD1 = human LSD1 (Homo sapiens (Human), UniProt O60341); assay: Experiment 1B: in vitro LSD1 enzyme activity, enzyme-coupled fluorescence (HRP/Amplex Red), H3(1-21)K4me2 peptide 10 μM (Reaction Biology); assay type: biochemical; conditions: histone H3(1-21)K4me2 peptide 10 μM
In short: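 Human LSD1 with 10 μM histone H3(1-21)K4me2 peptide; enzyme and substrate incubated 30 min before compound addition started the reaction. H2O2 detected via HRP/Amplex Red fluorescence (Ex/Em 535/590). IC50 from 10-point 3-fold dilutions starting at 10 μM.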

[1] = target: hERG potassium ion channels (Homo sapiens (Human), UniProt Q12809); assay: Experiment 4: hERG potassium ion channel inhibition, automated patch clamp (Qpatch), CHO-hERG cells; assay type: cell-based; conditions: highest test concentration 40 μM
hERG potassium ion channels, sequence (Q12809 whole entry): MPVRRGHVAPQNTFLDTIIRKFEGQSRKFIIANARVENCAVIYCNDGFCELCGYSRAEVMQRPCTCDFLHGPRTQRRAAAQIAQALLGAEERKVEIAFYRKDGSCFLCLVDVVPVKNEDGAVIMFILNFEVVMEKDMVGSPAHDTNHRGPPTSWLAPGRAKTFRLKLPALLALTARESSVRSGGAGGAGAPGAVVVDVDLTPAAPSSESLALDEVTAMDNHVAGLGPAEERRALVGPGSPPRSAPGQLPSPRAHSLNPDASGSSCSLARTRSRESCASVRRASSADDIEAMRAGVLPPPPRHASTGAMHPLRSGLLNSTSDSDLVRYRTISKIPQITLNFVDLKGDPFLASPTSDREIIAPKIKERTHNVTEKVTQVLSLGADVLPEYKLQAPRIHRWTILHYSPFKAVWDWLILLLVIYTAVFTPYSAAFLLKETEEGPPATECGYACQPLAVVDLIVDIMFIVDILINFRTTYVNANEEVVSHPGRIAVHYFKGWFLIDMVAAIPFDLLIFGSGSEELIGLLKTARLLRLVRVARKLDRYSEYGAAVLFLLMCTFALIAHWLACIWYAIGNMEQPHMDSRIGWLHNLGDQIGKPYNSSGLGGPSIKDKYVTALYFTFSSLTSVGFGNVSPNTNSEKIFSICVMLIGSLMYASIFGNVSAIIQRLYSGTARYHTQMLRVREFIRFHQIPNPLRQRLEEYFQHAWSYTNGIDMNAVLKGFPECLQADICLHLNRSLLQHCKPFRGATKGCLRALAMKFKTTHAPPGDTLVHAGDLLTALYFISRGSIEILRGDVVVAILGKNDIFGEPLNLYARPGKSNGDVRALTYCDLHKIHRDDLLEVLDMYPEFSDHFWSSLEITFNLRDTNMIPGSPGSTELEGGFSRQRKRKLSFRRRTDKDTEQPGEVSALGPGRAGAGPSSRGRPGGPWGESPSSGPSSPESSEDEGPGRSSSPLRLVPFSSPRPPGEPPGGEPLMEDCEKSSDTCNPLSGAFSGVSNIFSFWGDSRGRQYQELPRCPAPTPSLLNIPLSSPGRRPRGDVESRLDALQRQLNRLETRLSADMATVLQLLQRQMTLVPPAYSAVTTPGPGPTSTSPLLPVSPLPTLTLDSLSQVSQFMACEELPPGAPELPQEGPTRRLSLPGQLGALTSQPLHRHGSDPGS
Method: Experiment 4: hERG Potassium Ion Channel Inhibition Assay
Experimental purpose: To test the effects of the test examples on hERG potassium ion channels using an automated patch clamp method.
4.1.1 CHO-hERG cells were cultured in a 175 cm^2 culture flask. When the cell density grew from 60% to 80%, the culture medium was removed. The cells were washed once with 7 mL of PBS (Phosphate Buffered Saline), and then 3 mL of Detachin cell dissociation reagent was added thereto for digestion.
4.1.2 After the digestion was completed, 7 mL of culture medium was added thereto for neutralization, then the mixture was centrifuged, the supernatant was aspirated, and then 5 mL of culture medium was added thereto for resuspension to ensure a cell density of 2×10^6/mL to 5×10^6/ML.
The single-cell high-resistance sealing and whole-cell modeling formation processes were all automatically completed by the Qpatch instrument of the Shanghai Institute of Materia Medica, Chinese Academy of Sciences. After obtaining the whole-cell recording modeling, the cells were clamped at −80 mV, and before a 5-second +40 mV depolarizing stimulus was given, a 50-millisecond −50 mV prepulse was first given, then the voltage was repolarized to −50 mV and holden for 5 seconds, and finally returned to −80 mV. This voltage stimulus was applied every 15 seconds, recorded for 2 minutes, and then the extracellular fluid was recorded for 5 minutes, and then the administration process was initiated, with compound concentrations starting at the lowest test concentration. The voltage stimulus was given for 2.5 minutes for each test concentration, and after all concentrations had been continuously given, 3 μM the positive control compound, Cisapride, was given. At least 3 cells were tested per concentration (n≥3).
4.4.1 The compound stock solution was diluted with DMSO, and 20 μL of DMSO solution was added with 10 μL of the compound stock solution, and serially diluted 3-fold to 6 DMSO concentrations.
4.4.2 4 μL of 6 DMSO concentrations of compounds were taken respectively and added to 396 μL of extracellular fluid, and the mixture was diluted 100-fold to 6 intermediate concentrations, then 80 μL of 6 intermediate concentrations of compounds was taken and added to 320 μL of extracellular fluid, and the mixture was diluted 5-fold to the final test concentration.
4.4.3 The highest test concentration was 40 μM, and the concentrations were respectively 40, 13.3, 4.4, 1.48, 0.494, and 0.165 μM for a total of six concentrations.
4.4.5 The preparation of the compound was completed by the Bravo instrument throughout the dilution process.
Experimental data were analyzed by GraphPad Prism 5.0 software.

Row | IC50 (human LSD1) [nM] | Compound | IC50 [1] [µM]
1 | 24.8 | CC(C)(CO)n1cc2cc(-c3sc(C(=O)N4CCC[C@@H](N)C4)cc3-c3ccc(C#N)c(F)c3)ccc2n1 [Hydrochloride of compound 87] | 13.4
2 | 12.6 | CN[C@@H]1CCCN(C(=O)c2cc(-c3ccc(C#N)c(F)c3)c(-c3cc4nnn(CC(C)(C)O)c4c(F)c3F)s2)C1 [Hydrochloride of compound 98] | 18.6
